# Test results taken from patent publication US20250027085A1, “COMPOSITIONS AND METHODS FOR TREATING ALZHEIMER'S DISEASE UTILIZING A TRANSCRIPTIONAL MASTER REGULATOR OF THE RETROMER COMPLEX” (THE TRUSTEES OF COLUMBIA UNIVERSITY IN THE CITY OF NEW YORK, priority 2022, published 2025).
# System: rat hippocampal neurons
# Assay: Cell death assay (TUNEL) after axonal Aβ1-42/Aβ42 treatment in microfluidic chambers
# Format: cell-based
# Settings: Aβ oligomers 36 hours, nelfinavir in the last 24 hours, 10/15 μM nelfinavir
# Description: Hippocampi were dissected from embryonic day (E) 16-18 rat embryos obtained from pregnant Sprague-Dawley dams (Envigo). All animal procedures were approved by the Institutional Animal Care and Use Committee at Columbia University. Cell dissociation was performed using TripLE Express. Neurons (50,000-60,000 per microfluidic chamber) were plated on 0.1 mg ml^-1 poly-D-lysine (Millipore Sigma) and 2 μg ml^-1 laminin (Bio-Techne) coated substrates and grown in Neurobasal supplemented with 10% fetal bovine serum, 2 mM L-glutamine, 1 mM sodium pyruvate, and antibiotics (50 U ml^-1 penicillin-streptomycin). Tripartite microfluidic chambers were produced with Dow Corning Sylgard 184 Silicone Encapsulant Clear Kit (10:1 mix ratio; Ellsworth Adhesives) cured at […] for at least 4 hours following published protocols (Park et al. 2006; Desai et al. 2009). Chamber design incorporated two sets of 200-μm-long microgroove barriers to exclude crossing of cell bodies and dendrites (Taylor et al. 2005; […] et al. 2009). After 24 hours, medium was changed to Neurobasal containing 1×B27 and 2 mM L-glutamine. Subsequent medium changes (half volumes) were performed at DIV4 and thereafter every 3-5 days. To prevent glial cell proliferation, medium changes included 5-flurodeoxyuridine and uridine (final concentration […]; Millipore Sigma) after DIV4. […]
smiles,measurement,value
Cc1c(O)cccc1C(=O)N[C@@H](CSc1ccccc1)[C@H](O)CN1C[C@H]2CCCC[C@H]2C[C@H]1C(=O)NC(C)(C)C [nelfinavir],retrograde degeneration response (TUNEL) triggered by local Aβ1-42/Aβ42 stimuli,completely rescued
